In ChEMBL document CHEMBL3813700, “New halogenated tris-(phenylalkyl)amines as h5-HT2B receptor ligands” (Bioorg Med Chem Lett, 2016) one finds Ki, Ratio Ki and IC50 data, which are given here for 14 molecules.

In test [1] the target is T1, 5-hydroxytryptamine receptor 2B (Homo sapiens, UniProt P41595). Description: Displacement of [3H]LSD from human 5-HT2B receptor measured after 90 mins by microbeta scintillation counting method. For orientation: In a radioligand displacement assay an active substance lowers the binding of a labelled ligand.
T1 sequence (P41595 whole entry): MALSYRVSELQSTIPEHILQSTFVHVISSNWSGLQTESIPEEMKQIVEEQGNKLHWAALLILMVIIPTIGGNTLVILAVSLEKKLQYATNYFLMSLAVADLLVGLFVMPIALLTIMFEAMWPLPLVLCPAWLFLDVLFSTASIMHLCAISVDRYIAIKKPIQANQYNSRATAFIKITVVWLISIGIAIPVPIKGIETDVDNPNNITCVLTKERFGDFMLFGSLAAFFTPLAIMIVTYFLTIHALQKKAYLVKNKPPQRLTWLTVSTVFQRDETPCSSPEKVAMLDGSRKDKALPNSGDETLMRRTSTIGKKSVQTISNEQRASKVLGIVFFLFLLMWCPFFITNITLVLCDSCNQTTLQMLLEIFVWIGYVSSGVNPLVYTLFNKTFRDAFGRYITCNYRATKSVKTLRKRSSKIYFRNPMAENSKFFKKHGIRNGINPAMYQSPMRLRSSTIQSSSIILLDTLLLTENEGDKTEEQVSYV
Test [2] concerns the target 5-hydroxytryptamine receptor 2A (Homo sapiens, UniProt P28223). Nature of the test: Displacement of [3H]ketanserin from human 5-HT2A receptor measured after 90 mins by microbeta scintillation counting method.
Test [3] concerns the target T2, 5-hydroxytryptamine receptor 2C (Homo sapiens, UniProt P28335).
T2 sequence (P28335 whole entry): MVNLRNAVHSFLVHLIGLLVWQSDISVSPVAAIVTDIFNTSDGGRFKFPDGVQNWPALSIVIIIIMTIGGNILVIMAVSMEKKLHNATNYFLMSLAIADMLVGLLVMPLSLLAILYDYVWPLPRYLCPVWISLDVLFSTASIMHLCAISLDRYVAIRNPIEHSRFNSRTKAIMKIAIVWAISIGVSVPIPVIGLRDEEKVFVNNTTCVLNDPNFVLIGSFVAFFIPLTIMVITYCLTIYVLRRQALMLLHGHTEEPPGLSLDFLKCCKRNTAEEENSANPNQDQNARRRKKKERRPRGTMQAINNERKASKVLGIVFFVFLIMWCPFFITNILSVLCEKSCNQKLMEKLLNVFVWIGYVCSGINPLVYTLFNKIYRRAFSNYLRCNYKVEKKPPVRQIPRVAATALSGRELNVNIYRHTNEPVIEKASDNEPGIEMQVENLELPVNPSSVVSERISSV
Description: Displacement of [3H]mesulergine from human 5-HT2C receptor measured after 90 mins by microbeta scintillation counting method.

The species named for test [4] is Homo sapiens. Description: Selectivity index, ratio of Ki for human 5-HT2A receptor to Ki for human 5-HT2B receptor.
The species entered for test [5] is Homo sapiens. Description: Selectivity index, ratio of Ki for human 5-HT2C receptor to Ki for human 5-HT2B receptor.
Test [6] has as its target T1, 5-hydroxytryptamine receptor 2B. Nature of the test: Antagonist activity at human 5-HT2B receptor by PDSP assay.

Sequence of 5-hydroxytryptamine receptor 2A (P28223 whole entry): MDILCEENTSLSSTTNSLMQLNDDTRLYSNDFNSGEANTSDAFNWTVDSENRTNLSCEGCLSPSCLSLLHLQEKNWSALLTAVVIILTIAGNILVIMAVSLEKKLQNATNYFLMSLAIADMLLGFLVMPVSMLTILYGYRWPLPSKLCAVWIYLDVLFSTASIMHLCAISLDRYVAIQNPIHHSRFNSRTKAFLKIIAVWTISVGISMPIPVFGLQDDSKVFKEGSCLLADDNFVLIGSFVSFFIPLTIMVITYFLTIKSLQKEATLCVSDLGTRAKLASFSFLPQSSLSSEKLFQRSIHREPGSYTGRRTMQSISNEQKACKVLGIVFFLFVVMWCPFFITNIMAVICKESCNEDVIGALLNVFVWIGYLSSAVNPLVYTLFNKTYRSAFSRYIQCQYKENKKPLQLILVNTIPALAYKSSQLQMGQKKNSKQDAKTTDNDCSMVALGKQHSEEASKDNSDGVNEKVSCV

As for `Cn1ccc2cc(NC(=O)Nc3cccnc3)ccc21`, the affinity in test [1], expressed as Ki, was 21 nM.
For the molecule `COc1ccc(CCN(CCCc2ccc(F)cc2)CCc2ccc3c(c2)OCO3)cc1OC`, the Ki (commonly a dissociation constant, usually derived from enzyme kinetics or from competition with a known ligand) amounted to 185 nM in test [2], 14 nM in test [1] and 126 nM in test [3]. For the same molecule, the Ratio Ki in the test listed under Homo sapiens [4] was 13; in the test filed under Homo sapiens [5], 9.
For `COc1ccc(CCN(CCCc2cccc(I)c2)CCc2ccc3c(c2)OCO3)cc1OC` the same measures were 169 nM, 18 nM, 154 nM, 9 and 9.
`COc1ccc(CCN(CCCc2cccc(Cl)c2)CCc2ccc3c(c2)OCO3)cc1OC`: the inhibition constant Ki in test [2] came out at 125 nM; in test [1], 17 nM; in test [3] it was 206 nM. The Ratio Ki in the test filed under Homo sapiens [4] is 7; in the test filed under Homo sapiens [5] it was 12.
For `COc1ccc(CCN(CCCc2ccc(Br)cc2)CCc2ccc3c(c2)OCO3)cc1OC` the same measures were 221 nM, 45 nM, 219 nM, 5 and 5.
For `COc1ccc(CCN(CCCc2ccc(Cl)cc2)CCc2ccc3c(c2)OCO3)cc1OC` the same measures were 365 nM, 54 nM, 235 nM, 7 and 4.
The corresponding values for `COc1ccc(CCN(CCCc2cccc(F)c2)CCc2ccc3c(c2)OCO3)cc1OC` are 185 nM, 18 nM, 167 nM, 10 and 9.
`COc1ccc(CCN(CCCc2cccc(Br)c2)CCc2ccc3c(c2)OCO3)cc1OC`: the Ki was 103 nM in test [2], 14 nM in test [1] and 143 nM in test [3]. Further, the Ratio Ki in the test filed under Homo sapiens [4] is 7; in the test listed under Homo sapiens [5] it was 10.
In the case of `COc1ccc(CCN(CCCc2ccccc2Cl)CCc2ccc3c(c2)OCO3)cc1OC`, the Ki in test [2] turned out to be 43 nM; in test [1], 3.1 nM; in test [3] it was 92 nM. Also, the Ratio Ki in the test listed under Homo sapiens [4] was determined as 14; in the test listed under Homo sapiens [5], 30. In test [6], the IC50 (commonly the midpoint of a concentration-inhibition curve) was 99 nM.
As to `COc1ccc(CCN(CCCc2ccccc2I)CCc2ccc3c(c2)OCO3)cc1OC`, the inhibitory constant (Ki) in test [2] was determined as 75 nM; in test [1] it was 13 nM; in test [3], 68 nM. Also, the Ratio Ki in the test filed under Homo sapiens [4] is 6; in the test filed under Homo sapiens [5] it was 5.
`COc1ccc(CCN(CCCc2ccccc2F)CCc2ccc3c(c2)OCO3)cc1OC`: the Ki is 65 nM in test [2], 1.7 nM in test [1] and 79 nM in test [3]. For the same molecule, the Ratio Ki in the test filed under Homo sapiens [4] came to 38; in the test listed under Homo sapiens [5], 46. Half-maximal inhibition in test [6] (IC50) was put at 135 nM.
Regarding `COc1ccc(CCN(CCCc2ccccc2Br)CCc2ccc3c(c2)OCO3)cc1OC`, the Ki in test [2] was found to be 54 nM; in test [1] it was 3.4 nM; in test [3], 124 nM. In addition, the Ratio Ki in the test listed under Homo sapiens [4] was 16; in the test listed under Homo sapiens [5], 36. Moreover, in test [6], the IC50 amounted to 326 nM.
Regarding `COc1ccc(CCN(CCCc2ccc(I)cc2)CCc2ccc3c(c2)OCO3)cc1OC`, the Ki in test [2] was 288 nM; in test [1] it was 51 nM; in test [3], 224 nM. The Ratio Ki in the test listed under Homo sapiens [4] was 6; in the test filed under Homo sapiens [5] it was 4.
For `COc1ccc(CCN(CCCc2ccccc2)CCc2ccc3c(c2)OCO3)cc1OC`, the Ratio Ki was found to be 6 in the test listed under Homo sapiens [4] and 15 in the test listed under Homo sapiens [5].
